According to US10285983B2, “3-(1H-pyrrolo[2,3-B]pyridin-2-yl)-1H-pyrazolo[3,4-B] pyridines and therapeutic uses thereof” (Samumed, LLC, priority 2015, dated 2019):

Assays:
[1] = system: IL-6 (THP-1 human monocyte cell line); test: IL-6 inhibition in LPS-stimulated THP-1 cells (HTRF); type: cell-based; details: LPS 500 ng/mL; for EC50: 22 hours, IL6 HTRF; for inhibition at 10 µM: given for EC50 >10 μM, read-out: percent inhibition at 10 μM
How it was run: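 THP-1 cells, serum-reduced to 1% FBS for 24 h, preincubated 2 h at 37° C with compound (10-point, 1:3 series, 0.1% DMSO), then stimulated with 500 ng/mL LPS for 22 h. IL-6 quantified by HTRF 665/620 nm ratio, normalized to DMSO; EC50 by four-parameter fit, else percent inhibition at 10 μM.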

[2] = system: primary human mesenchymal stem cells (hMSCs); test: Chondrogenesis induction in hMSCs (nodule count, Rhodamine B/Nile Red); type: cell-based; details: 144 h, 6 days; for EC50: concentration required to induce 50% levels of chondrogenesis vs TGF-β3, read-out: Conc (nM) of 50% TGF-β3 activity; for Emax: relative to TGF-β3 (10 ng/mL) positive control, read-out: Max. Activity as % TGF-β3 activity
Protocol: Representative compounds were screened using primary human mesenchymal stem cells (hMSCs) to determine their ability to induce chondrogenesis (process by which cartilage is developed).
Primary human mesenchymal stem cells (hMSCs) were purchased from Lonza (Walkersville, Md.) and expanded in Mesenchymal Stem Cell Growth Media (Lonza). Cells between passage 3 and 6 were used for the experiments.
Each compound was dissolved in DMSO as a 10 mM stock and used to prepare compound source plates. Serial dilution (1:3, 6-point dose-response curves from 2700 nM to 10 nM) and compound transfer was performed using the ECHO 550 (Labcyte, Sunnyvale, Calif.) into 96-well clear bottom assay plates (Greiner Bio-One) with appropriate DMSO backfill for a final DMSO concentration of 0.03%. hMSCs were plated at 20,000 cells/well in 250 μL/well Incomplete Chondrogenic Induction Medium (Lonza; DMEM, dexamethasone, ascorbate, insulin-transferrin-selenium [ITS supplement], gentamycin-amphotericin [GA-1000], sodium pyruvate, proline and L-glutamine). TGF-β3 (10 ng/mL) was used as a positive control for differentiation while negative control wells were treated with 75 nL DMSO for normalization and calculating EC50 values. Cells were incubated at 37° C. and 5% CO2 for 6 days. To image chondrogenic nodules, the cells were fixed using 4% formaldehyde (Electron Microscopy Sciences), and stained with 2 μg/mL Rhodamine B (Sigma-Aldrich) and 20 μM Nile Red (Sigma-Aldrich) [Johnson K., et. al, A Stem Cell-Based Approach to Cartilage Repair, Science, (2012), 336(6082), 717-721]. The nodules imaged (4 images per well at 4× magnification) by excitation at 531 nm and emission at 625 nm and quantified using the CellInsight CX5 (Thermo Scientific). Number of nodules in each well was normalized to the average of 3 DMSO treated wells on the same plate using Excel (Microsoft Inc.). The normalized averages (fold change over DMSO) of 3 replicate wells for each compound concentration were calculated. Due to solubility limitations of some of the compounds, curve fitting was incomplete leading to inaccurate EC50 determinations.
Using TGF-β3 as a positive control, the concentration of representative compounds required to induce 50% levels of chondrogenesis is reported. In addition, the maximum activity of each compound and the respective dose that each compound reached maximum chondrogenesis activity is reported.

EC50 [1] | EC50 [2] | Compound | Emax [2] | inhibition at 10 µM [1]
621 nM | 30 nM | CCCC(=O)Nc1cncc(-c2cnc3[nH]nc(-c4cc5c(-c6ccncc6)ccnc5[nH]4)c3c2)c1 [Compound 129, N-(5-(3-(4-(Pyridin-4-yl)-1H-pyrrolo[2,3-b]pyridin-2-yl)-1H-pyrazolo[3,4-b]pyridin-5-yl)pyridin-3-yl)butyramide] | 50% | 
> 10000 nM | 2700 nM | c1ccc(CNCc2cncc(-c3cnc4[nH]nc(-c5cc6c(-c7ccncc7)ccnc6[nH]5)c4c3)c2)cc1 [Compound 136, N-Benzyl-1-(5-(3-(4-(pyridin-4-yl)-1H-pyrrolo[2,3-b]pyridin-2-yl)-1H-pyrazolo[3,4-b]pyridin-5-yl)pyridin-3-yl)methanamine] | 93% | 23.5%
7 nM |  | CN(C)Cc1cncc(-c2cnc3[nH]nc(-c4cc5c(N6CCCCC6)ccnc5[nH]4)c3c2)c1 [Compound 181, N,N-Dimethyl-1-(5-(3-(4-(piperidin-1-yl)-1H-pyrrolo[2,3-b]pyridin-2-yl)-1H-pyrazolo[3,4-b]pyridin-5-yl)pyridin-3-yl)methanamine] | 46% | 
310 nM |  | O=C(Nc1cncc(-c2cnc3[nH]nc(-c4cc5cccnc5[nH]4)c3c2)c1)c1ccccc1 [Compound 263, N-(5-(3-(1H-Pyrrolo[2,3-b]pyridin-2-yl)-1H-pyrazolo[3,4-b]pyridin-5-yl)pyridin-3-yl)benzamide] | 22% | 
41 nM | 900 nM | CCCCC(=O)Nc1cncc(-c2cnc3[nH]nc(-c4cc5cccnc5[nH]4)c3c2)c1 [Compound 271, N-(5-(3-(1H-Pyrrolo[2,3-b]pyridin-2-yl)-1H-pyrazolo[3,4-b]pyridin-5-yl)pyridin-3-yl)pentanamide] | 260% | 
> 10000 nM |  | O=C(CC1CCNCC1)Nc1cncc(-c2cnc3[nH]nc(-c4cc5c(-c6ccncc6)ccnc5[nH]4)c3c2)c1 [Compound 577] | 27% | 0%
> 10000 nM |  | CN1CCN(c2ccnc3[nH]c(-c4n[nH]c5ncc(-c6cn[nH]c6)cc45)cc23)CC1 [Compound 635, 3-(4-(4-Methylpiperazin-1-yl)-1H-pyrrolo[2,3-b]pyridin-2-yl)-5-(1H-pyrazol-4-yl)-1H-pyrazolo[3,4-b]pyridine] | 20% | 21.4%
772 nM | 300 nM | Cn1cc(-c2cnc3[nH]nc(-c4cc5cccnc5[nH]4)c3c2)cn1 [Compound 652, 5-(1-Methyl-1H-pyrazol-4-yl)-3-(1H-pyrrolo[2,3-b]pyridin-2-yl)-1H-pyrazolo[3,4-b]pyridine] | 52% | 

Compound | EC50 [1] | EC50 [2] | Emax [2] | inhibition at 10 µM [1]
CCC(=O)Nc1cncc(-c2cnc3[nH]nc(-c4cc5c(N6CCCCC6)ccnc5[nH]4)c3c2)c1 [Compound 169, N-(5-(3-(4-(Piperidin-1-yl)-1H-pyrrolo[2,3-b]pyridin-2-yl)-1H-pyrazolo[3,4-b]pyridin-5-yl)pyridin-3-yl)propionamide] | 4810 nM | 900 nM | 183% | 
c1cncc(-c2cnc3[nH]nc(-c4cc5cccnc5[nH]4)c3c2)c1 [Compound 256, 5-(Pyridin-3-yl)-3-(1H-pyrrolo[2,3-b]pyridin-2-yl)-1H-pyrazolo[3,4-b]pyridine] | 121 nM |  | 11% | 
CC(C)(C)CC(=O)Nc1cncc(-c2cnc3[nH]nc(-c4cc5cccnc5[nH]4)c3c2)c1 [Compound 268, N-(5-(3-(1H-Pyrrolo[2,3-b]pyridin-2-yl)-1H-pyrazolo[3,4-b]pyridin-5-yl)pyridin-3-yl)-3,3-dimethylbutanamide] | 359 nM |  | 23% | 
O=C(Nc1cncc(-c2cnc3[nH]nc(-c4cc5cccnc5[nH]4)c3c2)c1)C1CCCCC1 [Compound 275, N-(5-(3-(1H-Pyrrolo[2,3-b]pyridin-2-yl)-1H-pyrazolo[3,4-b]pyridin-5-yl)pyridin-3-yl)cyclohexanecarboxamide] | 63 nM |  | 28% | 
